The subject of this assay is primary cultured guinea-pig urinary bladder (GPB) cells. As to the kind of experiment: Membrane hyperpolarization (MHP) assay, DiBAC(4)3 / FLIPR. Type of assay: cell-based. Particulars: for Emax / Maximal Response (% P1075): maximal steady-state hyperpolarization, normalized to 10 μM P1075 = 100%; for Emax: read-out: Maximal Response (% P1075); for EC50: membrane hyperpolarization in GPB cells. How it is done:
Compounds were evaluated for potassium channel opening activity using primary cultured guinea-pig urinary bladder (GPB) cells.
For the preparation of urinary bladder smooth muscle cells, urinary bladders were removed from male guinea-pigs (Hartley, Charles River, Wilmington, Mass.) weighing 300-400 g and placed in ice-cold Ca^2+-free Krebs solution (Composition, mM: KCl, 2.7; KH2PO4, 1.5; NaCl, 75; Na2HPO4, 9.6; Na2HPO4.7H2O, 8; MgSO4, 2; glucose, 5; HEPES, 10; pH 7.4). Cells were isolated by enzymatic dissociation as previously described with minor modifications in Klockner, U. and Isenberg, G., Pflugers Arch. 1985, 405, 329-339, hereby incorporated by reference. The bladder was cut into small sections and incubated in 5 mL of the Kreb's solution containing 1 mg/mL collagenase (Sigma, St. Louis, Mo.) and 0.2 mg/mL pronase (Calbiochem, La Jolla, Calif.) with continuous stirring in a cell incubator for 30 minutes. The mixture was then centrifuged at 1300×g for 5 minutes, and the pellet resuspended in Dulbecco's PBS (GIBCO, Gaithersburg, Md.) and recentrifuged to remove residual enzyme. The cell pellet was resuspended in 5 mL growth media (composition: Dulbecco's modified Eagle's medium supplemented with 10% fetal bovine serum, 100 units/mL penicillin, 100 units/mL streptomycin and […] amphotericin B) and further dissociated by pipetting the suspension through a flame-polished Pasteur pipette and passing it through a polypropylene mesh membrane (Spectrum, Houston, Tex.). The cell density was adjusted to 100,000 cells/mL by resuspension in growth media. Cells were plated in clear-bottomed black 96-well plates (Packard) for membrane potential studies at a density of 20,000 cells/well and maintained in a cell incubator with 90% air: 10% CO2 until confluent. Cells were confirmed to be of smooth muscle type by cytoskeletal staining using a monoclonal mouse anti human-α-smooth muscle actin (Biomeda, Foster City, Calif.).
Functional activity at potassium channels was measured by evaluating changes in membrane potential using the bis-oxonol dye DiBAC(4)3 (Molecular Probes) in a 96-well cell-based kinetic assay system, Fluorescent Imaging Plate Reader (FLIPR) (K. S. Schroeder et al., J. Biomed. Screen., v. 1 pp. 75-81 (1996)), hereby incorporated by reference. DiBAC(4)3 is an anionic potentiometric probe which partitions between cells and extracellular solution in a membrane potential-dependent manner. With increasing membrane potential (for example, K^+ depolarization), the probe fuither partitions into the cell; this is measured as an increase in fluorescence due to dye interaction with intracellular lipids and proteins. Conversely, decreasing membrane potential (hyperpolarization by potassium channel openers) evokes a decrease in fluorescence.
Confluent guinea-pig urinary bladder cells cultured in black clear-bottomed 96-well plates were rinsed twice with […] assay buffer (composition, mM: HEPES, 20; NaCl, 120; KCl, 2; CaCl2, 2; MgCl2, 1; glucose, 5; pH 7.4 at 25° C.) containing 5 μM DiBAC(4)3 and incubated with […] of the buffer in a cell incubator for 30 minutes at 37° C. to ensure dye distribution across the membrane. After recording the baseline fluorescence for 5 minutes, the reference or test compounds, prepared at 10 times the concentration in the assay buffer, were added directly to the wells. Changes in fluorescence were monitored for an additional 25 minutes. Hyperpolarization responses were corrected for any background noise and were normalized to the response observed with 10 μM of the reference compound P1075, N″-cyano-N-(tert-pentyl)-N′-(3-pyridinyl)guanidine, which was assigned as 100%. P1075 is a potent opener of smooth muscle KATP channels (Quast et al., Mol. Pharmacol., v. 43 pp. 474-481 (1993)) and was prepared using the procedures described in (Manley, J. Med. Chem. (1992) 35, 2327-2340), hereby incorporated by reference. […]

Broadly, the EC50 is the concentration giving half of the maximal effect. A higher EC50 goes with a need for much substance. In the case of `CC1=C(C#N)C(c2ccc(F)c(Br)c2)C2=C(CCNC2=O)N1` (racemic) [Example 1, 4-(3-bromo-4-fluorophenyl)-3-cyano-2-methyl-4,6,7,8-tetrahydro[1,6]naphthyridin-5(1H)-one], for the setting “Cavia porcellus”, the Emax amounted to 83% and the midpoint of the response, the EC50, lay at 52 nM.
For `CC1=C(C#N)C(c2ccc(F)c(Br)c2)c2c(cc[nH]c2=O)N1` (racemic) [Example 4, 4-(3-bromo-4-fluorophenyl)-3-cyano-2-methyl-4,6-dihydro[1,6]naphthyridin-5(1H)-one], for the setting “Cavia porcellus”, the Emax was 92% and a half-maximal effect (EC50) was put at 13 nM.
For the compound `CC(=O)C1=C(C)Nc2cc[nH]c(=O)c2C1c1ccc(F)c(Br)c1` (racemic) [Example 18, 3-acetyl-4-(3-bromo-4-fluorophenyl)-2-methyl-4,6-dihydro[1,6]naphthyridin-5(1H)-one], for the setting “Cavia porcellus”, the Emax turned out to be 83% and the response was half-maximal at 740 nM (EC50).
For `CC1=C(C#N)C(c2ccc(F)c(Br)c2)c2c(ccnc2Cl)N1` (racemic) [Example 32, 4-(3-bromo-4-fluorophenyl)-5-chloro-3-cyano-2-methyl-1,4-dihydro[1,6]naphthyridine], in that order: 91% and 4 nM.
Turning to `CC1=C(C#N)C(c2ccc(F)c(Br)c2)C2=C(CCNC2=O)N1` (stereo not drawn) [Example 3, 4-(3-bromo-4-fluorophenyl)-3-cyano-2-methyl-4 6,7,8-tetrahydro[1,6]naphthyridin-5(1H)-one], the “Maximal Response (% P1075)” value is 78 % P1075 and it took 2500 nM to reach a half-maximal effect (EC50).
The matching figures for `CC1=C(C#N)C(c2ccc(Cl)c(Cl)c2)C2=C(CCNC2=O)N1` (stereo not drawn) [Example 8, 4-(3,4-dichlorophenyl)-3-cyano-2-methyl-4,6,7,8-tetahydro[1,6]naphthyridin-5(1H)-one]: 97 % P1075 and 38 nM.
Regarding `CC1=C(C#N)C(c2cccc([N+](=O)[O-])c2)C2=C(CCNC2=O)N1` (stereo not drawn) [Example 9, 4-(3-nitrophenyl)-3-cyano-2-methyl-4,6,7,8-tetrahydro[1,6]naphthyridin-5(1H)-one], for the setting “Cavia porcellus”, the Emax stood at 106% and a half-maximal response (EC50) required 620 nM.
For `CC1=C(C#N)C(c2ccc(Cl)c([N+](=O)[O-])c2)C2=C(CCNC2=O)N1` (stereo not drawn) [Example 10, 4-(4-chloro-3-nitrophenyl)-3-cyano-2-methyl-4,6,7,8-tetrahydro[1,6]naphthyridin-5(1H)-one], in that order: 110% and 140 nM.
The matching figures for `CC1=C(C#N)C(c2ccc(Br)c(Br)c2)C2=C(CCNC2=O)N1` (stereo not drawn) [Example 11, 4-(3,4-dibromophenyl)-3-cyano-2-methyl-4,6,7,8-tetrahydro[1,6]naphthyridin-5(1H)-one]: 105% and 23 nM.
For the compound `CC1=C(C#N)C(c2ccc(F)c(F)c2)C2=C(CCNC2=O)N1` (stereo not drawn) [Example 12, 4-(3,4-difluorophenyl)-3-cyano-2-methyl-4,6,7,8-tetrahydro[1,6]naphthyridin-5(1H)-one], under “Cavia porcellus”, the Emax was 89% and the EC50 amounted to 890 nM.
The matching figures for `CC1=C(C#N)C(c2ccc(F)c(C(F)(F)F)c2)C2=C(CCNC2=O)N1` (stereo not drawn) [Example 13, 4-[4-fluoro-3-(trifluoromethyl)phenyl]-3-cyano-2-methyl-4,6,7,8-tetrahydro[1,6]naphthyridin-5(1H)-one]: 99% and 350 nM.
The matching figures for `CC1=C(C#N)C(c2cc(F)c(F)cc2F)C2=C(CCNC2=O)N1` (stereo not drawn) [Example 14, 4-(2,4,5-trifluorophenyl)-3-cyano-2-methyl-4,6,7,8-tetrahydro[1,6]naphthyridin-5(1H)-one]: 84% and 2600 nM.
For `CC1=C(C#N)C(c2ccc(F)c(Cl)c2)C2=C(CCNC2=O)N1` (stereo not drawn) [Example 15, 4-(3-chloro-4-fluorophenyl)-3-cyano-2-methyl-4,6,7,8-tetrahydro[1,6]naphthyridin-5(1H)-one], in that order: 102% and 110 nM.
In the case of `CC1=C(C#N)C(c2ccc(Cl)c(C(F)(F)F)c2)C2=C(CCNC2=O)N1` (stereo not drawn) [Example 16, 4-[4-chloro-3-(trifluoromethyl)phenyl]-3-cyano-2-methyl-4,6,7,8-tetrahydro[1,6]naphthyridin-5(1H)-one], under “Cavia porcellus”, the Emax was 109% and the EC50 was found to be 180 nM.
The matching figures for `CC(=O)C1=C(C)NC2=C(C(=O)NCC2)C1c1ccc(F)c(Br)c1` (stereo not drawn) [Example 17, 3-acetyl-4-(3-bromo-4-fluorophenyl)-2-methyl-4,6,7,8-tetrahydro[1,6]naphthyridin-5(1H)-one]: 45% and 14000 nM.
For `CC(=O)C1=C(C)Nc2cc[nH]c(=O)c2C1c1ccc(F)c(Br)c1` (stereo not drawn) [Example 19, 3-acetyl-4-(3-bromo-4-fluorophenyl)-2-methyl-4,6-dihydro[1,6]naphthyridin-5(1H)-one], in that order: 104% and 620 nM.
Regarding `O=C1NCCC2=C1C(c1ccc(F)c(Br)c1)C(C(=O)c1ccccc1)=C(c1ccccc1)N2` (stereo not drawn) [Example 20, 3-benzoyl-4-(3-bromo-4-fluorophenyl)-2-phenyl-4,6,7,8-tetrahydro[1,6]naphthyridin-5(1H)-one], where the note is “Cavia porcellus”, the Emax was determined as 51% and the concentration giving a half-maximal response (EC50) worked out at 18000 nM.
The matching figures for `CC1=C(C#N)C(c2ccc(F)c(Br)c2)C2=C(CCOC2=O)N1` (stereo not drawn) [Example 28, 4-(3-bromo-4-fluorophenyl)-3-cyano-2-methyl-1,4,7,8-tetrahydro-5H-pyrano[4,3-b]pyridin-5-one]: 82% and 22 nM.
The matching figures for `COC(=O)C1=C(C)NC2=C(C(=O)OCC2)C1c1ccc(F)c(Br)c1` (stereo not drawn) [Example 29, 4-(3-bromo-4-fluorophenyl)-3-methoxycarbonyl-2-methyl-1,4,7,8-tetrahydro-5H-pyrano[4,3-b]pyridin-5-one]: 81% and 19 nM.
For `COC(=O)C1=C(C)NC2=C(C(=O)OCC2)C1c1ccc(F)c(C(F)(F)F)c1` (stereo not drawn) [Example 30, 4-[4-fluoro-3-(trifluoromethyl)phenyl]-3-methoxycarbonyl-2-methyl-1,4,7,8-tetrahydro-5H-pyrano[4,3-b]pyridin-5-one], in that order: 52% and 4000 nM.
For the compound `COC(=O)C1=C(C)Nc2ccnc(Cl)c2C1c1ccc(F)c(Br)c1` (stereo not drawn) [Example 31, 4-(3-bromo-4-fluorophenyl)-5-chloro-3-(methoxycarbonyl)-2-methyl-1,4-dihydro[1,6]naphthyridine], where the note is “Cavia porcellus”, the Emax stood at 93% and a half-maximal response (EC50) required 39 nM.

These data come from patent US20020099070A1, “Dihydronaphthyridine potassium channel openers” (priority 2000, published 2002).
